Measured values from patent US20120282237A1, “USE OF PROTEIN ARGININE METHYLTRANSFERASES IN REGULATING HEMATOPOIETIC DIFFERENTIATION” (priority 2011, published 2012).

Experiments:
K562 cells [1] = assay: Ara-C-induced erythroid differentiation of K562 cells, benzidine staining; format: cell-based, human
Experimental: Various K562 cell clones were treated with Ara-C (A, 1 μM) and sodium butyrate (B, 2 mM) for 96 hr, and measured by qualifying hemoglobin-positive cells with benzidine stain. […] All experiments were performed at least three times and data are presented as means±S.E.; *** p<0.005 as compared with K562 parental cells.
The methyltransferase inhibitor, adenosine dialdehyde (AdOx), was added 8 hours before Ara-C treatment. Inhibition of methylation suppressed Ara-C-induced erythroid differentiation (A). The enzymatically impaired mutant PRMT1G80R, when transiently expressed in K562 cells (B), lost the effect on both megakaryocyte (C) and erythroid (D) differentiations. […] All experiments were performed at least three times and data are presented as means±S.E.; *** p<0.005 as compared with K562 parental cells.
In order to test whether activity of PRMT1 participates in regulation of differentiation, adenosine dialdehyde (AdOx), an inhibitor of S-adenosylhomocysteine hydrolase, which indirectly suppresses methylation due to accumulation of products, was used to treat K562 cells. […] A single amino acid mutation (G80R) in the conserved SAM binding domain of PRMT1 with impaired methyltransferase activity (Kwak et al., Mol. Cell 2003, 11, 1055-1066), HA-PRMT1G80R, was transiently expressed in K562 cells (FIG. 5B).

[2] = tested on: human CD34+ hematopoietic cells; assay: TPO-induced megakaryocyte differentiation of CD34+ cells, CD41 expression by flow cytometry; format: cell-based; conditions: TPO alone (100 ng/ml), day 15
Experimental: To analyze the megakaryocyte surface marker CD41, cells were first incubated in 2% bovine serum albumin for 30 min and then with fluorescein isothiocyanate (FITC)-conjugated anti-Plt-1 (CD41) antibodies (1:80, Beckman Coulter) in 1% bovine serum albumin for 30 min; cells were then analyzed by flow cytometry.
To investigate the effect of PRMT1 in more physiologically relevant conditions, TAT-HA-PRMT1 was introduced into human CD34^+ hematopoietic cells. CD34^+ cells were derived from human umbilical cord blood with consent from the mother and were collected and processed according to governmental regulations (“Guidelines for Collection and Use of Human Specimens for Research.” Department of Health, Taiwan). Isolation and expansion of CD34^+ cells were performed as described previously (Yao, et al., Stem Cells Dev. 2006, 15, 70-78).
Briefly, the CD34^+ cells were purified with CD34 microbeads by a Miltenyi VarioMACS device (Miltenyi Biotec) and cultivated in serum-free Iscove's modified Dulbecco's medium (IMDM) (HyClone) supplemented with serum substitutes (1.5 g/liter bovine serum albumin, 4.4 μg/ml insulin, 60 μg/ml transferrin, and 25.9 μM 2-mercaptoethanol) and a cytokine mixture (8.5 ng/ml TPO, 4.1 ng/ml interleukin-3, 15 ng/ml stem cell factor, 6.7 ng/ml flk2/flt3 ligand, 0.8 ng/ml interleukin-6, 3.2 ng/ml granulocyte colony-stimulating factor, and 1.3 ng/ml granulocyte-macrophage colony-stimulating factor) for 6 to 7 days. To induce megakaryocyte differentiation, the expanded CD34^+ cells were cultivated (5×10^4cells/ml) in media described above without cytokine mixture for 6 h. TPO (100 ng/ml) was added to induce differentiation. Expression of CD41 was analyzed by flow cytometry 15 days after TPO stimulation.
Recombinant TAT-fused HA-PRMT1 and HA-GFP (as a control) proteins were expressed in Escherichia coli and purified using Ni^+-nitrilotriacetic acid-agarose (Qiagen). Endotoxins were removed using Detoxi-Gel™ endotoxin removing gel (Pierce) according to the manufacturer's instructions. For differentiation study, recombinant TAT-fused proteins were added to CD34^+ cells 6 h before TPO stimulation and again at the time of TPO addition.
Both the recombinant TAT-conjugated HA-PRMT1 protein and the HA-GFP control protein were detected in cells by Western blot analysis (FIG. 6A). Erk was used as a loading control. Thrombopoietin (TPO) induces CD34^+ hematopoietic cells to undergo differentiation towards the megakaryocyte lineage as detected by the expression of the specific surface marker CD41. TPO-induced CD41 expression ranged from 45% to 76% in four different donors at day 15 after TPO treatment (Table 1).

K562 cells [3] = assay: PMA-induced megakaryocyte differentiation of K562 cells (modified Wright-Giemsa staining, adherent cells); format: cell-based, human; conditions: PMA 40 nM
Experimental: For megakaryocyte differentiation, K562 cells were treated with 40 nM of PMA, (Sigma-Aldrich). Adherent cells with pseudopodia were examined by phase contrast light microscopy. For quantification, cells in suspension or loosely attached were first removed from the culture dish carefully, and adherent cells were then removed by trypsinization, collected, and counted. Cytological changes, including a multilobed nucleus and vacuolated cytoplasm, were examined by modified Wright-Giemsa staining. Three to four hundred cells were examined in each assay.
Megakaryopoiesis can be characterized by cytological changes and expression of lineage-specific markers such as CD41. […] In addition, we observed an increased number of adherent cells, about 30% at 96 hour (FIG. 2B, E3-6).

For `Nc1ncnc2c1ncn2C(C=O)OC(C=O)CO` (centres unmarked) [AdOx, adenosine dialdehyde], the Ara-C-induced erythrocytic differentiation (K562 cells [1]; AdOx added 8 hours before Ara-C treatment) was “dramatically suppressed” and the erythrocytic differentiation (K562 cells [1]; AdOx alone, no Ara-C) was “did not influence differentiation”.

“TPO: Thrombopoietin, inducer of megakaryocyte differentiation of CD34+ cells (100 ng/ml)” showed a CD41 expression ([2]; donor 1) of 62.3%, a CD41 expression ([2]; donor 2) of 44.7% and a CD41 expression ([2]; donor 3) of 68.2%. For the same compound, the CD41 expression ([2]; donor 4) was 75.7%.

With `CCCCCCCCCCCCCC(=O)O[C@@H]1[C@@H](C)[C@@]2(O)[C@@H](C=C(CO)C[C@]3(O)C(=O)C(C)=C[C@@H]23)[C@@H]2C(C)(C)[C@]12OC(C)=O` [PMA, Phobol 12-myristate 13-acetate] the “cells with characteristics of megakaryocytes” value (K562 cells [3]; E3-6 and parental K562 cells, 96 hours) was “About 50%” and the adherent cells (K562 cells [3]; E3-6 cells, 96 hour) was “about 30%”.
